According to ChEMBL document CHEMBL4342407, “Thieno[2,3-d]pyrimidine as a promising scaffold in medicinal chemistry: Recent advances” (Bioorg Med Chem, 2019):
In brackets after ≈: the same amount, converted by molar mass.

Legend:
Staphylococcus aureus [1] = experiment: Antibacterial activity against Staphylococcus aureus ATCC 25923 assessed as diameter of zone inhibition at 100 ug/ml; assay type: functional; details: read-out: DIZ
Escherichia coli [2] = experiment: Antibacterial activity against Escherichia coli ATCC 25922 assessed as diameter of zone inhibition at 100 ug/ml; assay type: functional; details: read-out: DIZ
Bacillus subtilis [3] = experiment: Antibacterial activity against Bacillus subtilis ATCC 6633 assessed as diameter of zone inhibition at 100 ug/ml; assay type: functional; details: read-out: DIZ
[4] = molecular target: Cyclin-dependent kinase 4/cyclin D1 (Homo sapiens, UniProt P11802); experiment: Inhibition of CDK4/cyclin D1 (unknown origin) expressed in baculovirus infected Sf9 insect cells using GST-Rb as substrate in presence of [33P] ATP incubated for 30 mins
Sequence of Cyclin-dependent kinase 4/cyclin D1 (P11802 whole entry): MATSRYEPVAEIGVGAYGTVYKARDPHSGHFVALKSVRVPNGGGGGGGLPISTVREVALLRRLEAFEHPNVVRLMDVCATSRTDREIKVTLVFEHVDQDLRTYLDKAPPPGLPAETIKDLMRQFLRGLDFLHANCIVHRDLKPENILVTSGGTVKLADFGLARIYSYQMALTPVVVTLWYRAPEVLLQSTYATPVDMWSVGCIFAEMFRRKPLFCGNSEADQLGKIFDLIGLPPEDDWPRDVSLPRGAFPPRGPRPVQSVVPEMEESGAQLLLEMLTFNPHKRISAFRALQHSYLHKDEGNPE
Sequence of Cyclin-dependent kinase 4/cyclin D1 (P24385 whole entry, further chain): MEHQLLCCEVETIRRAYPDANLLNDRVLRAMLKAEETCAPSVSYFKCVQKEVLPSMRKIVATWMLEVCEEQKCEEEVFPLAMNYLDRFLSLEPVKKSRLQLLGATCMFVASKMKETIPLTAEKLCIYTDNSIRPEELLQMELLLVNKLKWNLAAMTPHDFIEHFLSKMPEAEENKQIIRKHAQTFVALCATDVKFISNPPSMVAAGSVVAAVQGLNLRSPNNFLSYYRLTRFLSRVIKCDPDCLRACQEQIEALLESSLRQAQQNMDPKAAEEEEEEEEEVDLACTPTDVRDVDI

[5] = molecular target: Cyclin-dependent kinase 2/cyclin E1 (Homo sapiens, UniProt P24941); experiment: Inhibition of CDK2/cyclin E (unknown origin) expressed in baculovirus infected Sf9 insect cells using GST-Rb as substrate in presence of [33P] ATP incubated for 30 mins
Homo sapiens = species: Homo sapiens; experiment: Selectivity ratio of IC50 for CDK2/cyclin E (unknown origin) expressed in baculovirus infected Sf9 insect cells to IC50 for CDK4/cyclin D1 (unknown origin) expressed in baculovirus infected Sf9 insect cells
HepG2 = experiment: Antiproliferative activity against human HepG2 after 24 hrs by MTT assay; assay type: functional, cell-based; details: HepG2, 24 h
HEp-2 = experiment: Antiproliferative activity against human Hep2 after 24 hrs by MTT assay; assay type: functional, cell-based; details: HEp-2, 24 h
MCF7 [6] = experiment: Antiproliferative activity against human MCF7 after 24 hrs by MTT assay; assay type: functional, cell-based; details: MCF7, 24 h
PC-3 = experiment: Antiproliferative activity against human PC3 after 24 hrs by MTT assay; assay type: functional, cell-based; details: PC-3, 24 h
HeLa = experiment: Antiproliferative activity against human HeLa after 24 hrs by MTT assay; assay type: functional, cell-based
[7] = Inhibition of PTK (unknown origin) using poly-Glu-Tyr (PGT) as substrate by ELISA; design: species or system Homo sapiens
Staphylococcus aureus [8] = experiment: Antibacterial activity against Staphylococcus aureus ATCC 25923 assessed as diameter of zone inhibition at 30 ug/ml; assay type: functional; details: read-out: DIZ
Escherichia coli [9] = experiment: Antibacterial activity against Escherichia coli ATCC 25922 assessed as diameter of zone inhibition at 30 ug/ml; assay type: functional; details: read-out: DIZ
Bacillus subtilis [10] = experiment: Antibacterial activity against Bacillus subtilis ATCC 6633 assessed as diameter of zone inhibition at 30 ug/ml; assay type: functional; details: read-out: DIZ
Candida albicans = experiment: Antifungal activity against Candida albicans ATCC 653/885 assessed as diameter of zone inhibition at 30 ug/ml; assay type: functional; details: read-out: DIZ
A549 [11] = experiment: Antiproliferative activity against human A549 after 18 hrs by MTT assay; assay type: functional, cell-based; details: A549, 18 h
HCT-116 [12] = experiment: Antiproliferative activity against human HCT116 after 18 hrs by MTT assay; assay type: functional, cell-based; details: HCT-116, 18 h
Staphylococcus aureus [13] = experiment: Antibacterial activity against Staphylococcus aureus assessed as diameter of zone inhibition at 0.5% incubated for 24 hrs by stiff plate agar diffusion method; assay type: functional
Rhodococcus fascians = experiment: Antibacterial activity against Mycobacterium luteum assessed as diameter of zone inhibition at 0.5% incubated for 24 hrs by stiff plate agar diffusion method; assay type: functional, Rhodococcoides fascians
[14] = Inhibition of Influenza A virus H3N2 Neuraminidase
Aspergillus niger [15] = experiment: Antifungal activity against Aspergillus niger incubated for 24 to 72 hrs by Serial dilution method; assay type: functional
MCF7 [16] = experiment: Antiproliferative activity against human MCF7 after 18 hrs by MTT assay; assay type: functional, cell-based; details: MCF7, 18 h
HCT-116 [17] = experiment: Antiproliferative activity against human HCT116 after 48 hrs by MTT assay; assay type: functional; details: HCT-116, 48 h
HCT-15 = experiment: Antiproliferative activity against human HCT15 after 48 hrs by MTT assay; assay type: functional; details: HCT-15, 48 h
HT-29 = experiment: Antiproliferative activity against human HT-29 after 48 hrs by MTT assay; assay type: functional; details: HT-29, 48 h
BT-549 = experiment: Antiproliferative activity against human BT549 after 48 hrs by MTT assay; assay type: functional; details: BT-549, 48 h
MDA-MB-453 = experiment: Antiproliferative activity against human MDA-MB-453 after 48 hrs by MTT assay; assay type: functional; details: MDA-MB-453, 48 h
MCF7 [18] = experiment: Antiproliferative activity against human MCF7 after 48 hrs by MTT assay; assay type: functional; details: MCF7, 48 h
A549 [19] = experiment: Antiproliferative activity against human A549 after 48 hrs by MTT assay; assay type: functional; details: A549, 48 h
DU-145 = experiment: Antiproliferative activity against human DU145 after 48 hrs by MTT assay; assay type: functional; details: DU-145, 48 h
Rattus norvegicus = experiment: Antiinflammatory activity in Sprague-Dawley rat assessed as inhibition of carrageenan-induced edema at 10 mg/kg, po pretreated for 1 hr followed by carrageenan challenge and measured after 4 hrs by mercury plethysmometer relative to control; assay type: functional
Human alphaherpesvirus 1 [20] = experiment: Antiviral activity against Herpes simplex virus 1 at 20 ug/10^5; assay type: functional
Human alphaherpesvirus 1 [21] = experiment: Antiviral activity against Herpes simplex virus 1 at 50 ug/10^5; assay type: functional
Aspergillus niger [22] = experiment: Antifungal activity against Aspergillus niger assessed as diameter of zone inhibition at 0.5% incubated for 24 hrs by stiff plate agar diffusion method; assay type: functional
Escherichia coli [23] = experiment: Antibacterial activity against Escherichia coli assessed as diameter of zone inhibition at 0.5% incubated for 24 hrs by stiff plate agar diffusion method; assay type: functional
Aspergillus niger [24] = experiment: Antifungal activity against Aspergillus niger assessed as diameter of zone inhibition at 0.1% incubated for 24 hrs by stiff plate agar diffusion method; assay type: functional

SMILES: Cc1c(-c2nnc(-c3ccccc3)o2)sc2c1c(=O)n(-c1ccccc1)c(=O)n2Cc1nc(-c2ccccc2)no1
- zone of inhibition at 100 µg/mL (Staphylococcus aureus [1]): 15 mm
- zone of inhibition at 100 µg/mL (Escherichia coli [2]): 14 mm
- zone of inhibition at 100 µg/mL (Bacillus subtilis [3]): 17 mm

SMILES: CNCc1csc(/C=N/Nc2ncnc3sc(C(C)C(C)C)cc23)n1 (stereo unspecified)
- IC50 [4]: 0.022 µM
- IC50 [5]: 0.88 µM
- Ratio IC50 (Homo sapiens): 40

SMILES: CC(N)c1csc(/C=N/Nc2ncnc3sc(C(C)(C)CF)cc23)n1 (stereo unspecified)
- IC50 [4]: 0.046 µM
- IC50 [5]: 0.68 µM
- Ratio IC50 (Homo sapiens): 14.7

SMILES: COc1cc(/C=C/C(=O)c2sc3nc(S)n(-c4ccccc4)c(=O)c3c2C)cc(OC)c1OC
- IC50 (HepG2): 20.6 µM
- IC50 (HEp-2): 22.1 µM
- IC50 (MCF7 [6]): 17.1 µM
- IC50 (PC-3): 16.4 µM
- IC50 (HeLa): 12.9 µM
- IC50 [7]: 203 µM

SMILES: Cc1ncc([N+](=O)[O-])n1CCO [METRONIDAZOLE]
- zone of inhibition at 30 µg/mL (Staphylococcus aureus [8]): 14 mm
- zone of inhibition at 30 µg/mL (Escherichia coli [9]): 14 mm
- zone of inhibition at 30 µg/mL (Bacillus subtilis [10]): 16 mm
- zone of inhibition at 30 µg/mL (Candida albicans): 14 mm

SMILES: CCc1cc2c(OCc3cc(-c4ccc(Cl)cc4)no3)ncnc2s1
- IC50 (A549 [11]): 45.5 µM
- IC50 (HCT-116 [12]): 33.3 µM

SMILES: CCc1sc2ncnc(SCC(=O)NS(=O)(=O)c3ccc(Cl)cc3)c2c1CC
- diameter of the inhibition zone (DIZ) (Staphylococcus aureus [13]): 12 mm
- diameter of the inhibition zone (DIZ) (Rhodococcus fascians): 17 mm

SMILES: Cc1cc2c(OCc3cc(-c4ccc(Cl)cc4)no3)ncnc2s1
- IC50 (A549 [11]): 2.79 µM
- IC50 (HCT-116 [12]): 6.69 µM

SMILES: C/C(=N\Nc1nc(-c2c[nH]c3ccccc23)nc2sc3c(c12)CCCC3)c1ccccc1
- IC50 [14]: 0.237 µM

SMILES: O=CC1CN(c2nc(-c3c[nH]c4ccccc34)nc3sc4c(c23)CCCC4)N=C1c1ccccc1 (stereo unspecified)
- IC50 [14]: 0.089 µM

SMILES: CCOC(=O)CSc1ncnc2sc(CC)c(CC)c12
- MIC (Aspergillus niger [15]): 31.2 µg/mL (≈ 101 µM)

SMILES: CN[C@@H]1[C@H](O[C@H]2[C@H](O[C@H]3[C@H](O)[C@@H](O)[C@H](N=C(N)N)[C@@H](O)[C@@H]3N=C(N)N)O[C@@H](C)[C@]2(O)C=O)O[C@@H](CO)[C@H](O)[C@H]1O [STREPTOMYCIN]
- zone of inhibition at 30 µg/mL (Staphylococcus aureus [8]): 15 mm
- zone of inhibition at 30 µg/mL (Escherichia coli [9]): 16 mm
- zone of inhibition at 30 µg/mL (Bacillus subtilis [10]): 17 mm

SMILES: Cc1c(-c2nnc(-c3ccccc3)o2)sc2c1c(=O)n(-c1ccccc1)c(=O)n2Cc1nc(-c2ccc(Cl)cc2)no1
- zone of inhibition at 100 µg/mL (Staphylococcus aureus [1]): 15 mm
- zone of inhibition at 100 µg/mL (Escherichia coli [2]): 14 mm
- zone of inhibition at 100 µg/mL (Bacillus subtilis [3]): 17 mm

SMILES: Cc1ccc(-c2cc(COc3ncnc4sc(C)cc34)on2)cc1
- IC50 (A549 [11]): 144 µM
- IC50 (HCT-116 [12]): 53.9 µM
- IC50 (MCF7 [16]): 13.5 µM

SMILES: CCC(C)c1cc2c(N/N=C/c3nc(CNC)cs3)ncnc2s1 (stereo unspecified)
- IC50 [4]: 0.029 µM
- IC50 [5]: 0.44 µM
- Ratio IC50 (Homo sapiens): 15.2

SMILES: O=C(/C=C/c1cccc(C(F)(F)F)c1)Nc1cccc(Nc2ncnc3sccc23)c1
- GI50 (HCT-116 [17]): 5.8 µM
- GI50 (HCT-15): 5.1 µM
- GI50 (HT-29): > 10 µM
- GI50 (BT-549): 3.1 µM
- GI50 (MDA-MB-453): 0.9 µM
- GI50 (MCF7 [18]): 0.8 µM
- GI50 (A549 [19]): 4.6 µM
- GI50 (DU-145): 5.4 µM

SMILES: O=C1CCC(=O)N1Nc1nc(-c2c[nH]c3ccccc23)nc2sc3c(c12)CCCC3
- IC50 [14]: 0.021 µM

SMILES: O=C(Nc1cccc(Nc2ncnc3sccc23)c1)c1ccc(F)cc1
- GI50 (HCT-116 [17]): 10.2 µM
- GI50 (HCT-15): > 10 µM
- GI50 (HT-29): > 10 µM
- GI50 (BT-549): 1.3 µM
- GI50 (MDA-MB-453): > 10 µM
- GI50 (MCF7 [18]): 1.6 µM
- GI50 (A549 [19]): 4.3 µM
- GI50 (DU-145): 9.2 µM

SMILES: COc1ccc2c(c1)c(CC(=O)O)c(C)n2C(=O)c1ccc(Cl)cc1 [INDOMETHACIN]
- inhibition in vivo at 10 mg/kg (Rattus norvegicus): 49.1%

SMILES: Cc1nc(SCCO)c2c3c(sc2n1)CCc1ccccc1-3
- Activity (Human alphaherpesvirus 1 [20]): 40%
- Activity (Human alphaherpesvirus 1 [21]): 75%

SMILES: Cc1ccc([N+](=O)[O-])c(C(=O)Nc2cccc(Nc3ncnc4sccc34)c2)c1
- GI50 (HCT-116 [17]): 3.5 µM
- GI50 (HCT-15): 3.6 µM
- GI50 (HT-29): > 10 µM
- GI50 (BT-549): > 10 µM
- GI50 (MDA-MB-453): 8.2 µM
- GI50 (MCF7 [18]): 3.3 µM
- GI50 (A549 [19]): 8.6 µM
- GI50 (DU-145): 7.5 µM

SMILES: Cc1sc2nc[nH]c(=[Se])c2c1C
- diameter of the inhibition zone (DIZ) (Aspergillus niger [22]): 12 mm
- diameter of the inhibition zone (DIZ) (Escherichia coli [23]): 14.7 mm

SMILES: Cc1ccc(/C=C/C(=O)c2sc3nc(S)n(-c4ccccc4)c(=O)c3c2C)cc1
- IC50 (HepG2): 7.99 µM
- IC50 (HEp-2): 5.4 µM
- IC50 (MCF7 [6]): 6.84 µM
- IC50 (PC-3): 7.71 µM
- IC50 (HeLa): 4.3 µM
- IC50 [7]: 136 µM

SMILES: Cc1c(-c2nnc(-c3ccccc3)o2)sc2c1c(=O)n(-c1ccccc1)c(=O)n2Cc1nc(-c2ccccc2Cl)no1
- zone of inhibition at 100 µg/mL (Staphylococcus aureus [1]): 15 mm
- zone of inhibition at 100 µg/mL (Escherichia coli [2]): 14 mm
- zone of inhibition at 100 µg/mL (Bacillus subtilis [3]): 17 mm

SMILES: CCCCCc1sc2nc[nH]c(=[Se])c2c1CCCCC
- diameter of the inhibition zone (DIZ) (Aspergillus niger [22]): 22 mm
- diameter of the inhibition zone (DIZ) (Aspergillus niger [24]): 12 mm
- diameter of the inhibition zone (DIZ) (Escherichia coli [23]): 14 mm
- MIC (Aspergillus niger [15]): 31.2 µg/mL (≈ 87.8 µM)

SMILES: O=C1c2ccccc2C(=O)N1Nc1nc(-c2c[nH]c3ccccc23)nc2sc3c(c12)CCCC3
- IC50 [14]: 0.067 µM

SMILES: COCCSc1ncnc2sc3c(c12)-c1ccccc1CC3
- Activity (Human alphaherpesvirus 1 [20]): 15%
- Activity (Human alphaherpesvirus 1 [21]): 30%
